The values below come from patent publication US5428059A, “Benzopyran derivatives and an anti-allergic agent possessing the same as the active ingredient” (Dainippon Ink & Chemicals, Inc., priority 1991, dated 1995).

In the experiment the test system is Hartley-type male guinea pigs. Nature of the experiment: Guinea Pig Homogeneous Skin Passive Anaphylaxis Assay (PCA reaction). The class given is in vivo, guinea pig (Hartley-type). Particulars: Cavia porcellus, 10 mg/kg oral, 48 h after sensitization, read-out: Allergic reaction inhibitory index (%). The procedure:
In order to confirm the anti-allergic action of the compounds according to the present invention, as an anti-allergic action confirmation assay, the widely used Guinea Pig Homogeneous Skin Passive Anaphylaxis Assay (PCA Reaction Assay; Passive Cutaneous Anaphylaxis Reaction Assay) was carried out. The assay method used will be explained in the following.
Assay method: Hartley-type male guinea pigs (body weight: 250~300 g) were sensitized by the following procedure; a mixture of 2 μg of egg albumin (OVA) and 5 μg of aluminium hydroxide gel was administered intraperitoneally 3 times every 2 weeks, and the anti-OVA blood serum was manufactured.
The anti-blood serum obtained was then diluted 120 times using physiological saline solution, and then to groups each containing 6 shaved guinea pigs, was injected at a quantity of 0.05 ml respectively, into two positions in the back portion, inside the skin of each animal.
After the 48th hour of sensitization, 10 mg/kg of the test substance to be tested was orally administered, following which a mixture of 2 mg OVA and 5 mg of Evans Blue was administered by intraveneous injection into the hind leg, triggering the anaphylaxis reaction. As the positive control, Tranilast, a well known anti-allergic agent, was used, and in the same manner as the substances to be tested, 100 mg/kg of it was orally administered after the 48th hour of sensitization.
30 minutes after triggering the reaction, the animals were bled to death under ether anesthesia, and their back portion skins were peeled off. The long and short diameters of pigment leakage spots on the interior surface of the skins were measured, and the product of these (mm^2) were entered into formula 1 as "pigment leakage amount", from which the allergic reaction inhibitory index wins calculated. [formula]
I: Allergic reaction inhibitory index (%)
A: Pigment leakage amount of solvent control group
B: Pigment leakage amount of test substance group
C: Pigment leakage amount of […]

As for `CC(=O)Oc1c(O)c(=O)oc2cc(OC(C)C)ccc12` [Compound 46, 3-hydroxy-4-(acetoxy)-7-(isopropoxy)-2H-1-benzopyran-2-one], the inhibition in vivo at 10 mg/kg came out at 34%.
`CC(C)Oc1ccc2c(OC(=O)c3ccccc3)c(OC(=O)c3ccccc3)c(=O)oc2c1` [Compound 47, 3,4-(dibenzoyloxy)-7-(isopropoxy)-2H-1-benzopyran-2-one]: the inhibition in vivo at 10 mg/kg is 31%.
The same measure for `CCCCCCCCCCOc1c(O)c2ccc(OC(C)C)cc2oc1=O` [Compound 48, 3-(decyloxy)-4-hydroxy-7-(isopropoxy)-2H-1-benzopyran-2-one]: 42%; for `COc1c(O)c(=O)oc2cc(OC(C)C)ccc12` [Compound 49, 3-hydroxy-4-(methoxy)-7-(isopropoxy)-2H-1-benzopyran-2-one]: 36%.
Turning to `CCCCCCCCCCOc1c(OC)c(=O)oc2cc(OC(C)C)ccc12` [Compound 50, 3-(methoxy)-4-(decyloxy)-7-(isopropoxy)-2H-1-benzopyran-2-one], the inhibition in vivo at 10 mg/kg turned out to be 33%.
The same measure for `COc1c(OC(C)=O)c(=O)oc2cc(OC(C)C)ccc12` [Compound 51, 3-(acetoxy)-4-(methoxy)-7-(isopropoxy)-2H-1-benzopyran-2-one]: 30%; for `CC(C)Oc1ccc2c(OC(=O)c3ccccc3)c(OC(C)C)c(=O)oc2c1` [Compound 52, 3,7-(diisopropoxy)-4-(benzoyloxy)-2H-1-benzopyran-2-one]: 32%; for `CC(C)=CCC/C(C)=C/COc1c(O)c2ccc(OC(C)C)cc2oc1=O` [Compound 53, 3-(geranyloxy)-4-hydroxy-7-(isopropoxy)-2H-1-benzopyran-2-one]: 38%.
The figure for `CC(C)=CCC/C(C)=C/COc1c(O)c(=O)oc2cc(OC(C)C)ccc12` [Compound 54, 3-hydroxy-4-(geranyloxy)-7-(isopropoxy)-2H-1-benzopyran-2-one] is 32%; for `CC(C)=CCC/C(C)=C/COc1c(OC(C)C)c2ccc(OC(C)C)cc2oc1=O` [Compound 55, 3-(geranyloxy)-4,7-(diisopropoxy)-2H-1-benzopyran-2-one] it is 33%; for `COc1c(OC/C=C(\C)CCC=C(C)C)c2ccc(OC(C)C)cc2oc1=O` [Compound 56, 3-(methoxy)-4-(geranyloxy)-7-(isopropoxy)-2H-1-benzopyran-2-one] it is 31%.
In the case of `CC(C)=CCC/C(C)=C/COc1c(OC/C=C(\C)CCC=C(C)C)c2ccc(OC(C)C)cc2oc1=O` [Compound 57, 3,4-(digeranyloxy)-7-(isopropoxy)-2H-1-benzopyran-2-one], the inhibition in vivo at 10 mg/kg worked out at 30%.
Regarding `CCCCCCCCCCOc1ccc2c(O)c(OC(=O)c3ccccc3)c(=O)oc2c1` [Compound 58, 3-(benzoyloxy)-4-hydroxy-7-(decyloxy)-2H-1-benzopyran-2-one], the inhibition in vivo at 10 mg/kg was 38%.
The same measure for `CCCCCCCCCCOc1ccc2c(O)c(O)c(=O)oc2c1` [Compound 59, 3,4-(dihydroxy)-7-(decyloxy)-2H-1-benzopyran-2-one]: 47%.
With `CCCCCCCCCCOc1ccc2c(OC(C)=O)c(O)c(=O)oc2c1` [Compound 60, 3-hydroxy-4-(acetoxy)-7-(decyloxy)-2H-1-benzopyran-2-one], the inhibition in vivo at 10 mg/kg worked out at 35%.
The same measure for `CCCCCCCCCCOc1ccc2c(OC(C)=O)c(OC(C)=O)c(=O)oc2c1` [Compound 61, 3,4-(diacetoxy)-7-(decyloxy)-2H-1-benzopyran-2-one]: 30%; for `CCCCCCCCCCOc1ccc2c(O)c(OC)c(=O)oc2c1` [Compound 62, 3-(methoxy)-4-hydroxy-7-(decyloxy)-2H-1-benzopyran-2-one]: 43%; for `CCCCCCCCCCOc1ccc2c(OC(C)C)c(O)c(=O)oc2c1` [Compound 63, 3-hydroxy-4-(isopropoxy)-7-(decyloxy)-2H-1-benzopyran-2-one]: 37%.
The same measure for `CCCCCCCCCCOc1ccc2c(OC(C)C)c(OC)c(=O)oc2c1` [Compound 64, 3-(methoxy)-4-(isopropoxy)-7-(decyloxy)-2H-1-benzopyran-2-one]: 30%; for `CCCCCCCCCCOc1ccc2c(OC)c(OC(=O)c3ccccc3)c(=O)oc2c1` [Compound 65, 3-(benzoyloxy)-4-(methoxy)-7-(decyloxy)-2H-1-benzopyran-2-one]: 32%; for `CCCCCCCCCCOc1ccc2c(OC)c(OC(C)C)c(=O)oc2c1` [Compound 66, 3-(isopropoxy)-4-(methoxy)-7-(decyloxy)-2H-1-benzopyran-2-one]: 30%.
The figure for `CCCCCCCCCCOc1ccc2c(O)c(OC/C=C(\C)CCC=C(C)C)c(=O)oc2c1` [Compound 67, 3-(geranyloxy)-4-hydroxy-7-(decyloxy)-2H-1-benzopyran-2-one] is 39%; for `CCCCCCCCCCOc1ccc2c(OC/C=C(\C)CCC=C(C)C)c(O)c(=O)oc2c1` [Compound 68, 3-hydroxy-4-(geranyloxy)-7-(decyloxy)-2H-1-benzopyran-2-one] it is 32%; for `CCCCCCCCCCOc1ccc2c(OC(C)=O)c(OC/C=C(\C)CCC=C(C)C)c(=O)oc2c1` [Compound 69, 3-(geranyloxy)-4-(acetoxy)-7-(decyloxy)-2H-1-benzopyran-2-one] it is 33%.
Regarding `CCCCCCCCCCOc1ccc2c(OC/C=C(\C)CCC=C(C)C)c(OC(=O)c3ccccc3)c(=O)oc2c1` [Compound 70, 3-(benzoyloxy)-4-(geranyloxy)-7-(decyloxy)-2H-1-benzopyran-2-one], the inhibition in vivo at 10 mg/kg came out at 30%.
The figure for `CCCCCCCCCCOc1ccc2c(OC)c(OC/C=C(\C)CCC=C(C)C)c(=O)oc2c1` [Compound 71, 3-(geranyloxy)-4-(methoxy)-7-(decyloxy)-2H-1-benzopyran-2-one] is 30%; for `CCCCCCCCCCOc1ccc2c(OC/C=C(\C)CCC=C(C)C)c(OC(C)C)c(=O)oc2c1` [Compound 72, 3-(isopropoxy)-4-(geranyloxy)-7-(decyloxy)-2H-1-benzopyran-2-one] it is 34%.
The figure for `CCCCCCCCCCOc1ccc2c(OC/C=C(\C)CCC=C(C)C)c(OC/C=C(\C)CCC=C(C)C)c(=O)oc2c1` [Compound 73, 3-4-(digeranyloxy)-7-(decyloxy)-2H-1-benzopyran-2-one] is 30%; for `CC(C)=CCC/C(C)=C/COc1ccc2c(O)c(OC(=O)c3ccccc3)c(=O)oc2c1` [Compound 74, 3-(benzoyloxy)-4-hydroxy-7-(geranyloxy)-2H-1-benzopyran-2-one] it is 34%; for `CC(C)=CCC/C(C)=C/COc1ccc2c(O)c(O)c(=O)oc2c1` [Compound 75, 3,4-(hydroxy)-7-(geranyloxy)-2H-1-benzopyran-2-one] it is 45%.
The figure for `CC(=O)Oc1c(O)c(=O)oc2cc(OC/C=C(\C)CCC=C(C)C)ccc12` [Compound 76, 3-hydroxy-4-(acetoxy)-7-(geranyloxy)-2H-1-benzopyran-2-one] is 32%; for `CC(=O)Oc1c(OC(=O)c2ccccc2)c(=O)oc2cc(OC/C=C(\C)CCC=C(C)C)ccc12` [Compound 77, 3-(benzoyloxy)-4-(acetoxy)-7-(geranyloxy)-2H-1-benzopyran-2-one] it is 31%; for `COc1c(O)c2ccc(OC/C=C(\C)CCC=C(C)C)cc2oc1=O` [Compound 78, 3-(methoxy)-4-hydroxy-7-(geranyloxy)-2H-1-benzopyran-2-one] it is 37%.
As to `CC(C)=CCC/C(C)=C/COc1ccc2c(OC(C)C)c(O)c(=O)oc2c1` [Compound 79, 3-hydroxy-4-(isopropoxy)-7-(geranyloxy)-2H-1-benzopyran-2-one], the inhibition in vivo at 10 mg/kg was found to be 32%.
The figure for `CCCCCCCCCCOc1c(OC(C)C)c2ccc(OC/C=C(\C)CCC=C(C)C)cc2oc1=O` [Compound 80, 3-(decyloxy)-4-(isopropoxy)-7-(geranyloxy)-2H-1-benzopyran-2-one] is 30%; for `CC(C)=CCC/C(C)=C/COc1ccc2c(OC(C)C)c(OC(=O)c3ccccc3)c(=O)oc2c1` [Compound 81, 3-(benzoyloxy)-4-(isopropoxy)-7-(geranyloxy)-2H-1-benzopyran-2-one] it is 31%.
The same measure for `COc1c(OC(C)=O)c2ccc(OC/C=C(\C)CCC=C(C)C)cc2oc1=O` [Compound 82, 3-(methoxy)-4-(acetoxy)-7-(geranyloxy)-2H-1-benzopyran-2-one]: 30%.
In the case of `CC(C)=CCC/C(C)=C/COc1ccc2c(O)c(OC/C=C(\C)CCC=C(C)C)c(=O)oc2c1` [Compound 83, 3,7-(digeranyloxy)-4-hydroxy-2H-1-benzopyran-2-one], the inhibition in vivo at 10 mg/kg turned out to be 34%.
